Assay results: patent US12377110B2, “Fospropofol methods and compositions” (Epalex Corporation, priority 2019, dated 2025)
Values joined by “and” are separate entries in the source; they are usually repeats but may differ in a detail not shown here. Equal values may be shown once.

Tests used:
[1] = Study A16 Part 2: PK of a single dose of 1200 mg fospropofol disodium following a high-fat meal; type: in vivo, human
Protocol: Part 2 of Study A16 was a double-blind, placebo-controlled, single-close pilot study to investigate the PK, safety, and tolerability of 1200 mg of fospropofol disodium administered to healthy adult men and women following a high-fat meal.
Subjects were healthy adults (age 18-55 years inclusive, BMI 18-29.9 kg/m^2). A separate cohort of 15 subjects was randomly assigned to receive a single oral dose of either fospropofol disodium (n=12) or matching placebo (n=3) within 30 minutes (±1 minute) after the start of a standardized high-fat meal.
Subjects were admitted to the clinical unit for an overnight fast (Day −1), administered study drug on Day 1 within 30 minutes of the start a standardized high-fat meal, and remained in the clinical unit until Day 2.
Fospropofol disodium was formulated as powder in 6 HPMC capsules, each capsule containing 200 mg of fospropofol disodium (weight adjusted for water content). Placebo was administered as 6 matching capsules.

[2] = Study A17: PK of fospropofol and propofol after single oral dose of fospropofol disodium 800 mg in subjects with migraine; settings: for AUC / Cmax / Tmax: female, human, po, 800 mg; for Cmax: Fospropofol Cmax; for Tmax: Fospropofol Tmax
Protocol: The study is planned to complete approximately 85 subjects. • Enrolled subjects will be asked to come to the study site for treatment when they experience a qualifying migraine headache. Dosing must occur within 4 hours after onset of the migraine symptoms. If treatment at the study site is not feasible or practicable within 4 hours after onset of migraine symptoms, subjects should use their usual medication for that headache and attempt to visit the clinic for treatment as soon as possible (within 4 hours) after onset of their next migraine headache. Dosing must occur within 60 days after enrollment (see Post-enrollment Period below). • At clinic check-in for treatment, study personnel will verify eligibility for closing regarding the criteria for a qualifying headache and adherence to post-enrollment study restrictions (see Eligibility for Dosing below). • Treatment will consist of a single oral dose of fospropofol disodium. […] Because the prevalence of migraine headaches is higher in women than in men, efforts will be made to enroll at least 50% women. • Subjects must meet the general inclusion and exclusion criteria listed below (Inclusion Criteria and Exclusion Criteria) at screening to be enrolled in the study. To be eligible for fospropofol disodium treatment after onset of a migraine headache, enrolled subjects must meet criteria specific to the presenting headache at clinic check-in (see Qualifying Headache below) and adhere to study restrictions specific to the period between enrollment and clinic check-in (see Post-enrollment Restrictions below). • Inclusion Criteria Subjects must meet all of the following criteria at screening to be enrolled in the study: • 1. Written informed consent approved by the Institutional Review Board (IRB) given before any study-related procedures are performed • 2. […] Complete abstinence alone can be used as a method of contraception. • 6. […] Able to comprehend the nature of the study, capable of giving written informed consent, and able to communicate effectively with clinic staff (as assessed by the investigator) • 8. Available to volunteer for the entire study duration and willing to adhere to all protocol requirements, including the post-enrollment restrictions (see Post-enrollment Restrictions below) • 9. Agrees not to post any information related to the study on any website or social media site (e.g., Facebook, Twitter, LinkedIn, Google+, etc.) until the entire trial has been completed • 10. Willing to forgo rescue medicine for at least 2 hours after initiation of treatment with study drug (see In-Clinic Rescue Medicine) • Exclusion Criteria Subjects to whom any of the following criteria apply at screening will be excluded: • 1. History of hemiplegic migraine (at any time in the past). • 2. History of headaches of any type occurring on ≥15 days/month during any of the 3 months prior to screening. • 3.

[3] = Study No. 15-3 toxicokinetics of fospropofol and propofol in plasma; type: in vivo, Sprague-Dawley rats; settings: for AUC(0-t) / Cmax / Tmax: Sprague-Dawley, rat, plasma, po, oral gavage fospropofol disodium; for AUC(0-t): read-out: Fospropofol AUC0-6 hr; for Cmax: read-out: Fospropofol Cmax; for Tmax: read-out: Fospropofol Tmax
Protocol: The purpose of Study No. 15-3 (GLP) was to determine the potential toxicity of fospropofol in Sprague-Dawley rats when administered once daily by oral gavage for 14 days. […] The cause of death for the three 250 mg/kg/day group main study females found dead could not be determined, but was considered related to the pharmacodynamic effects of fospropofol, based on the time of death relative to the time of close administration, and the clinical signs recorded before death. Clinical observations during the closing period for these animals included labored breathing, prostrate, splayed hindlimbs, uncoordinated movement, decreased activity, and eyes closed.

[4] = A17 vs. A16 800 mg Cohort, excluding subject 308
[5] = Study A17 vs. A16 800 mg Cohort, excluding subject 308
[6] = plasma, Mean, Mean without Subject 6008 (below limit of quantitation at all time points), Fospropofol Disodium 800 mg oral
[7] = plasma, Mean, N = 12 migraine subjects, Fospropofol Disodium 800 mg oral
[8] = individual migraine subjects, Fospropofol Disodium 800 mg oral
[9] = plasma, individual migraine subjects (N = 12), Fospropofol Disodium 800 mg oral
[10] = female, 50 mg/kg, Female, 50 mg/kg, Day 1
[11] = female, 50 mg/kg, Female, 50 mg/kg, Day 14
[12] = female, 100 mg/kg, Female, 100 mg/kg, Day 1
[13] = female, 100 mg/kg, Female, 100 mg/kg, Day 14
[14] = female, 250 mg/kg, Female, 250 mg/kg, Day 1
[15] = female, 250 mg/kg, Female, 250 mg/kg, Day 14
[16] = male, 50 mg/kg, Male, 50 mg/kg, Day 1
[17] = male, 50 mg/kg, Male, 50 mg/kg, Day 14
[18] = male, 100 mg/kg, Male, 100 mg/kg, Day 1
[19] = male, 100 mg/kg, Male, 100 mg/kg, Day 14
[20] = male, 250 mg/kg, Male, 250 mg/kg, Day 1
[21] = male, 250 mg/kg, Male, 250 mg/kg, Day 14

## CC(C)c1cccc(C(C)C)c1OCOP(=O)(O)O [fospropofol, (2,6-diisopropylphenoxy)methyl dihydrogen phosphate]
[1]; 1200 mg within 30 minutes after the start of a high-fat meal
  Effect of high-fat meal on exposure: significant reduction in exposure
[1]; 1200 mg, high-fat meal vs fasting
  Mean exposure to fospropofol (both Cmax and AUC) under fed conditions relative to fasting: approximately 24%
[1]; both sexes, human, plasma, oral, 1200 mg, fed, no appreciable effect, read-out: Fospropofol Tmax (median)
  Tmax: 20 min
[1]; both sexes, human, plasma, oral fospropofol disodium 1200 mg, Fed (Cohort 8), n = 10/12, mean, read-out: Fospropofol AUC0-∞
  AUC(0-inf): 1080 ng·h/mL
[1]; both sexes, human, plasma, oral fospropofol disodium 1200 mg, Fed (Cohort 8), n = 10/12, mean, read-out: Fospropofol t1/2 (converted)
  half-life: 15.6 min
[1]; both sexes, human, plasma, oral fospropofol disodium 1200 mg, Fed (Cohort 8), n= 12, mean
  Cmax: 1790 ng/mL
[1]; both sexes, human, plasma, oral fospropofol disodium 1200 mg, Fed (Cohort 8), n= 12, mean, read-out: Fospropofol AUC0-T
  AUC(0-t): 993 ng·h/mL
[1]; both sexes, human, plasma, oral fospropofol disodium 1200 mg, Fed (Cohort 8), n= 12, median, read-out: Fospropofol Tmax
  Tmax: 19.8 min
[1]; oral fospropofol disodium 1200 mg, Fed (Cohort 8), n = 10/12, mean
  Fospropofol CL/F: 4122 L/h
[2]; [4]
  Ratio of mean fospropofol Auc1, migraine subjects (all female) to female healthy volunteers: 110%
  Ratio of mean fospropofol Auc2, migraine subjects (all female) to female healthy volunteers: 116%
  Ratio of mean fospropofol Auc4, migraine subjects (all female) to female healthy volunteers: 120%
  Ratio of mean fospropofol Cmax, migraine subjects (all female) to female healthy volunteers: 94%
  Ratio of mean fospropofol Tmax, migraine subjects (all female) to female healthy volunteers: 89%
[2]; [5]
  Ratio of mean fospropofol Auc1, migraine subjects to healthy volunteers: 121%
  Ratio of mean fospropofol Auc2, migraine subjects to healthy volunteers: 130%
  Ratio of mean fospropofol Auc4, migraine subjects to healthy volunteers: 135%
  Ratio of mean fospropofol Cmax, migraine subjects to healthy volunteers: 105%
  Ratio of mean fospropofol Tmax, migraine subjects to healthy volunteers: 98%
[2]; plasma, Fospropofol AUC1, Mean, Mean without Subject 6008 (below limit of quantitation at all time points), Fospropofol Disodium 800 mg oral
  AUC: 3360 ng·h/mL
[2]; plasma, Fospropofol AUC1, Mean, Mean, N = 12 migraine subjects, Fospropofol Disodium 800 mg oral
  AUC: 3080 ng·h/mL
[2]; plasma, Fospropofol AUC2, Mean, Mean without Subject 6008 (below limit of quantitation at all time points), Fospropofol Disodium 800 mg oral
  AUC: 4310 ng·h/mL
[2]; plasma, Fospropofol AUC2, Mean, Mean, N = 12 migraine subjects, Fospropofol Disodium 800 mg oral
  AUC: 3950 ng·h/mL
[2]; plasma, Fospropofol AUC4, Mean, Mean without Subject 6008 (below limit of quantitation at all time points), Fospropofol Disodium 800 mg oral
  AUC: 4650 ng·h/mL
[2]; plasma, Fospropofol AUC4, Mean, Mean, N = 12 migraine subjects, Fospropofol Disodium 800 mg oral
  AUC: 4260 ng·h/mL
[2]; [6]
  Cmax: 6320 ng/mL
  Tmax: 19.8 min
[2]; [7]
  Cmax: 5790 ng/mL
  Tmax: 19.8 min
[2]; [8]
  Fospropofol AUC4: 3837.04 ng·h/mL and 1469.88 ng·h/mL and 4303.32 ng·h/mL and 4814.33 ng·h/mL and 6942.73 ng·h/mL and 1702.48 ng·h/mL and 8572.36 ng·h/mL and 1248.45 ng·h/mL and 3152.5 ng·h/mL and 7130.22 ng·h/mL and 7986.57 ng·h/mL
  Fospropofol Cmax: 5163.62 ng/mL and 3285.03 ng/mL and 5036.79 ng/mL and 7527.26 ng/mL and 10597.13 ng/mL and 2219.93 ng/mL and 8307.86 ng/mL and 1419.1 ng/mL and 4507.39 ng/mL and 11463.93 ng/mL and 10001.18 ng/mL
  Fospropofol Tmax: 10 min and 40 min
[2]; [9]
  Fospropofol AUC 1 hr: 723.61 ng·h/mL and 2418.57 ng·h/mL and 5268.76 ng·h/mL and 6456.6 ng·h/mL and 2684.78 ng·h/mL and 1315.43 ng·h/mL and 3262.09 ng·h/mL and 3522.27 ng·h/mL and 5673.87 ng·h/mL and 1193.95 ng·h/mL and 4461.52 ng·h/mL
  Fospropofol AUC 2 hr: 1007.69 ng·h/mL and 3045.22 ng·h/mL and 6730.95 ng·h/mL and 7756.33 ng·h/mL and 3666.13 ng·h/mL and 1421.1 ng·h/mL and 4174.88 ng·h/mL and 4386.97 ng·h/mL and 6702.97 ng·h/mL and 1610.51 ng·h/mL and 6945.81 ng·h/mL
[3]; 50, 100, and 250 mg/kg/day, Day 1 and Day 14
  Increase of fospropofol Cmax and AUC0-6hr with dose: greater than close-proportional
[3]; [10]
  AUC(0-t): 166 ng·h/mL
  Cmax: 582 ng/mL
  Tmax: 4.98 min
[3]; [11]
  AUC(0-t): 160 ng·h/mL
  Cmax: 341 ng/mL
  Tmax: 15 min
[3]; [12]
  AUC(0-t): 827 ng·h/mL
  Cmax: 1630 ng/mL
  Tmax: 4.98 min
[3]; [13]
  AUC(0-t): 1170 ng·h/mL
  Cmax: 2560 ng/mL
  Tmax: 4.98 min
[3]; [14]
  AUC(0-t): 4630 ng·h/mL
  Cmax: 8400 ng/mL
  Tmax: 4.98 min
[3]; [15]
  AUC(0-t): 3810 ng·h/mL
  Cmax: 8440 ng/mL
  Tmax: 4.98 min
[3]; male and female rats
  Fospropofol AUC0-6hr following repeated administration: did not appear to change
[3]; [16]
  AUC(0-t): 97.1 ng·h/mL
  Cmax: 178 ng/mL
  Tmax: 4.98 min
[3]; [17]
  AUC(0-t): 96.9 ng·h/mL
  Cmax: 149 ng/mL
  Tmax: 4.98 min
[3]; [18]
  AUC(0-t): 386 ng·h/mL
  Cmax: 930 ng/mL
  Tmax: 4.98 min
[3]; [19]
  AUC(0-t): 370 ng·h/mL
  Cmax: 1360 ng/mL
  Tmax: 4.98 min
[3]; [20]
  AUC(0-t): 3720 ng·h/mL
  Cmax: 8510 ng/mL
  Tmax: 4.98 min
[3]; [21]
  AUC(0-t): 2130 ng·h/mL
  Cmax: 5020 ng/mL
  Tmax: 4.98 min
[3]; rats, 14 days oral gavage fospropofol disodium
  Dependence of systemic exposure on sex: greater exposure in females
